# Tested on: NCI-H1341 complex spheroids, percent test/control
# Test: Anticancer human tumor NCI-H1341 cell line growth inhibition [AhR];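 further: spheroids exposed to agents for seven days before readout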
# Settings: for IC50: curve of first compound; for viability, T/C: stronger effect = lower value
# How it was run: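 Spheroids combined tumor cells with HUVEC endothelial cells and human MSCs as stroma. AhR antagonists were paired with standard or investigational drugs, each dosed in half-log steps down from near clinical Cmax, or from 10 microM where Cmax was unknown.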
# [1] = second compound 0.1 µM, first compound 0.0316 µM
# [2] = second compound 0.1 µM, first compound 0.1 µM
# [3] = second compound 0.1 µM, first compound 0.316 µM
# [4] = second compound 0.1 µM, first compound 1 µM
# [5] = second compound 0.316 µM, first compound 0.0316 µM
# [6] = second compound 0.316 µM, first compound 0.1 µM
# [7] = second compound 0.316 µM, first compound 0.316 µM
# [8] = second compound 0.316 µM, first compound 1 µM
# [9] = second compound 1 µM, first compound 0.0316 µM
# [10] = second compound 1 µM, first compound 0.1 µM
# [11] = second compound 1 µM, first compound 0.316 µM
# [12] = second compound 1 µM, first compound 1 µM
# [13] = second compound 3.16 µM, first compound 0.0316 µM
# [14] = second compound 3.16 µM, first compound 0.1 µM
# [15] = second compound 3.16 µM, first compound 0.316 µM
# [16] = second compound 3.16 µM, first compound 1 µM
# [17] = second compound 10 µM, first compound 0.0316 µM
# [18] = second compound 10 µM, first compound 0.1 µM
# [19] = second compound 10 µM, first compound 0.316 µM
# [20] = second compound 10 µM, first compound 1 µM
Compound,IC50 (second compound 0.1 µM),IC50 (second compound 0.316 µM),IC50 (second compound 1 µM),IC50 (second compound 3.16 µM),IC50 (second compound 10 µM),"viability, T/C [1]","viability, T/C [2]","viability, T/C [3]","viability, T/C [4]","viability, T/C [5]","viability, T/C [6]","viability, T/C [7]","viability, T/C [8]","viability, T/C [9]","viability, T/C [10]","viability, T/C [11]","viability, T/C [12]","viability, T/C [13]","viability, T/C [14]","viability, T/C [15]",other results
CC1COCCN1c1cc(-c2ccnn2C)c2ccnc(-c3ccn[nH]3)c2n1 (stereo not given) + CC(CO)NC(=O)c1cc(-c2ccc(Cl)cc2)nn(-c2cnn(C)c2)c1=O,45.8 nM,34.3 nM,24.8 nM,25.3 nM,16.8 nM,61.2%,28.6%,20.5%,20.2%,54.5%,29.7%,23.8%,18.2%,44.6%,25.3%,22.7%,19.2%,43.1%,24.6%,23.7%,"viability, T/C (second compound 0.1 µM, first compound 0.00316 µM): 87.6%; viability, T/C (second compound 0.1 µM, first compound 0.01 µM): 77.6%; viability, T/C (second compound 0.316 µM, first compound 0.00316 µM): 96.4%; viability, T/C (second compound 0.316 µM, first compound 0.01 µM): 73.6%; viability, T/C (second compound 1 µM, first compound 0.00316 µM): 90.2%; viability, T/C (second compound 1 µM, first compound 0.01 µM): 72.3%; viability, T/C (second compound 3.16 µM, first compound 0.00316 µM): 84.3%; viability, T/C (second compound 3.16 µM, first compound 0.01 µM): 77.3%; viability, T/C [16]: 17.8%; viability, T/C (second compound 10 µM, first compound 0.00316 µM): 71.2%; viability, T/C (second compound 10 µM, first compound 0.01 µM): 64%; viability, T/C [17]: 33%; viability, T/C [18]: 21.6%; viability, T/C [19]: 22.2%; viability, T/C [20]: 17.8%"
CC1COCCN1c1cc(C2(S(C)(=N)=O)CC2)nc(-c2ccnc3[nH]ccc23)n1 (stereo not given) + CC(CO)NC(=O)c1cc(-c2ccc(Cl)cc2)nn(-c2cnn(C)c2)c1=O,1600 nM,1090 nM,1540 nM,1490 nM,956 nM,89.6%,83.2%,96.7%,64.9%,78.8%,93.5%,70.1%,51.1%,77.3%,88.5%,88.4%,57.1%,95.8%,86.3%,87.8%,"viability, T/C (second compound 0.1 µM, first compound 3.16 µM): 29.7%; viability, T/C (second compound 0.1 µM, first compound 10 µM): 21.9%; viability, T/C (second compound 0.316 µM, first compound 3.16 µM): 32.4%; viability, T/C (second compound 0.316 µM, first compound 10 µM): 20.4%; viability, T/C (second compound 1 µM, first compound 3.16 µM): 35.5%; viability, T/C (second compound 1 µM, first compound 10 µM): 19.6%; viability, T/C [16]: 58.6%; viability, T/C (second compound 3.16 µM, first compound 3.16 µM): 31.7%; viability, T/C (second compound 3.16 µM, first compound 10 µM): 17.6%; viability, T/C [17]: 83.2%; viability, T/C [18]: 84.9%; viability, T/C [19]: 67.9%; viability, T/C [20]: 52.1%; viability, T/C (second compound 10 µM, first compound 3.16 µM): 24.8%; viability, T/C (second compound 10 µM, first compound 10 µM): 18.8%"
